US9834820B2, “Methods for the treatment and diagnosis of bone mineral density related diseases” (INSERM (Institut National de la Sante et de la Recherche …, priority 2007, dated 2017)
“Also recorded” adds a separate entry of the source.

What was measured:
[1] = tested on: RANKL expression in primary cultured osteoblasts; assay: real-time quantitative PCR of RANKL mRNA in primary cultured osteoblasts; format: cell-based, human; settings: for RANKL mRNA levels (in words): osteoblasts, FIG. 2b
Description: (§1) Human normal cranial suture were obtained after signed informed consent during routine surgery for craniosynostosis. Osteoblasts were cultured in Dulbecco's modified Eagle medium (with 10% fetal bovine serum) as described elsewhere (De Pollack, C. et al. 1996). […] Cells were harvested at day 3. Real-time quantitative PCR using Light Cycler technology (Roche Manheim) was performed for OPG and RANKL mRNA in each sample. The experiments were performed five times. In each experiment, samples were run in triplicate. The amounts of OPG and RANKL mRNA were normalized to the amount of β-actin mRNA. Student test was used for p values determination.

[2] = tested on: OPG expression in primary cultured osteoblasts; assay: real-time quantitative PCR of OPG mRNA in primary cultured osteoblasts; format: cell-based, human; settings: for OPG expression compared to control values: p<0.005; for OPG mRNA levels (in words): osteoblasts, FIG. 2b
Description: as §1

TXAS = settings: read-out: IC50 as selective inhibitor of TXAS; cited from earlier work

Row | SMILES | RANKL expression compared to control values ([1]; CTA2 5 μM added at day one, harvested day 3, p<0.005) | RANKL expression compared to control values ([1]; CTA2 15 μM added at day one, harvested day 3, p<0.03) | RANKL mRNA levels (in words) [1] | OPG expression compared to control values ([2]; CTA2 5 μM added at day one, harvested day 3) [%] | OPG expression compared to control values ([2]; CTA2 15 μM added at day one, harvested day 3) [%] | OPG mRNA levels (in words) [2] | RANKL expression compared to control values ([1]; Ozagrel 0.25 μM added daily during 3 days, normalized to β-actin mRNA, p<0.005) [%] | OPG expression compared to control values ([2]; Ozagrel 0.25 μM added daily during 3 days, normalized to β-actin mRNA) | IC50 (TXAS) [nM]
1 | CCCCC[C@H](O)/C=C/[C@H]1CC2CC(C2)[C@@H]1C/C=C\CCCC(=O)O [CTA2] | +94% | +471% | augmentation; also recorded: increased | −40 | −53 | diminution; also recorded: decreased | – | – | –
2 | O=C(O)/C=C/c1ccc(Cn2ccnc2)cc1 [Ozagrel] | – | – | diminution | – | – | augmentation | −78 | +50% | 11
